Compared with Cl.Cl.O=C(c1cc(C(F)(F)F)cc(C(F)(F)F)c1)N1CCN(CCCc2cccnc2)C[C@H]1Cc1ccc(Cl)cc1, Cl.Cl.O=C(c1cc(C(F)(F)F)cc(C(F)(F)F)c1)N1CCN(Cc2cccnc2)C[C@H]1Cc1ccc(F)c(F)c1 is higher in melting point: 60 to 100 °C for the first, 203 to 208 °C for the second.

COc1cc(C(=O)N2CCN(Cc3cnn(C)c3)C[C@H]2Cc2ccc(Cl)c(O)c2)cc(C(F)(F)F)c1.Cl and Cc1ccc(C[C@@H]2CN(Cc3cnn(CCO)c3)CCN2C(=O)c2cc(C(F)(F)F)cc(C(F)(F)F)c2)cc1O.Cl cannot be ordered by melting point: 140 to 150 °C for the first, 140 to 156 °C for the second.

Compared with C[C@@H]1CN(CCN2CCN(C(=O)c3cc(C(F)(F)F)cc(S(=O)(=O)N(C)C)c3)[C@H](Cc3ccc(Cl)cc3)C2)C[C@H](C)O1.Cl.Cl, Cc1cc(C(=O)N2CCN(CCN3C[C@@H](C)O[C@@H](C)C3)C[C@H]2Cc2ccc(Cl)cc2)cc(C(F)(F)F)c1.Cl.Cl is lower in melting point: 209.6 to 213.7 °C for the first, 82.3 to 88.2 °C for the second.

First: C[C@@H]1CN(CCN2CCN(C(=O)c3cc(Cl)cc(C(F)(F)F)c3)[C@H](Cc3ccc(Cl)cc3)C2)C[C@H](C)O1.Cl.Cl
Second: COc1cc(C(=O)N2CCN(CCN3C[C@@H](C)O[C@@H](C)C3)C[C@H]2Cc2ccc(F)cc2)cc(C(F)(F)F)c1.Cl.Cl
The melting point of the first is higher: 136.4 to 141 °C for the first, 70.3 to 85.2 °C for the second.

First: COC[C@@H]1CN(CC#CCN2CCN(C(=O)c3cc(C(F)(F)F)cc(C(F)(F)F)c3)[C@H](Cc3ccc(C)c(O)c3)C2)CCO1.Cl.Cl
Second: COC[C@@H]1C[C@@H](OC)CN1CCN1CCN(C(=O)c2cc(C(F)(F)F)cc(C(F)(F)F)c2)[C@H](Cc2ccc(Cl)c(O)c2)C1.Cl.Cl
The melting point of the first is higher: 110 to 130 °C for the first, 95 to 105 °C for the second.

Compared with Cc1ccc(C[C@@H]2CN(Cc3nc(N(C)C)no3)CCN2C(=O)c2cc(C(F)(F)F)cc(C(F)(F)F)c2)cc1O.Cl.Cl, Cl.Cl.O=C(c1cc(C(F)(F)F)cc(C(F)(F)F)c1)N1CCN(Cc2c[nH]c3cccnc23)C[C@H]1Cc1ccc(Cl)c(O)c1 is higher in melting point: 140 to 150 °C for the first, 208 to 211 °C for the second.

First: COC[C@@H]1CN(CCN2CCN(C(=O)c3cc(C(F)(F)F)cc(C(F)(F)F)c3)[C@H](Cc3ccc(C(F)(F)F)cc3)C2)C[C@H](COC)O1.Cl.Cl
Second: CO[C@H]1CN(CCN2CCN(C(=O)c3cc(C(F)(F)F)cc(C(F)(F)F)c3)[C@H](Cc3ccc(C(F)(F)F)cc3)C2)C[C@@H]1OC.Cl.Cl
The melting point of the first is lower: 130 to 138 °C for the first, 203 to 208 °C for the second.

First: CS(=O)(=O)c1cc(C(=O)N2CCN(CCN3CCc4ncccc4C3)C[C@H]2Cc2ccc(C(F)(F)F)cc2)cc(C(F)(F)F)c1.Cl.Cl.Cl
Second: Cl.Cl.Cl.O=C(c1cc(C(F)(F)F)cc(C(F)(F)F)c1)N1CCN(CCN2CCc3ncccc3C2)C[C@H]1Cc1ccc(C(F)(F)F)cc1
The melting point of the first is higher: 192 to 197 °C for the first, 174 to 180 °C for the second.

First: C[C@@H]1CN(CCN2CCN(C(=O)c3cc(-c4ccncc4)cc(C(F)(F)F)c3)[C@H](Cc3ccc(C(F)(F)F)cc3)C2)C[C@H](C)O1.Cl.Cl.Cl
Second: COC[C@@H]1CN(CCN2CCN(C(=O)c3cc(OC)cc(C(F)(F)F)c3)[C@H](Cc3ccc(F)cc3)C2)CCO1.Cl.Cl
The melting point of the first is higher: 135 to 145 °C for the first, 109.5 to 119.2 °C for the second.

First: COC[C@@H]1CN(CCN2CCN(C(=O)c3cc(SC)cc(C(F)(F)F)c3)[C@H](Cc3ccc(F)c(OC)c3)C2)CCO1.Cl.Cl
Second: COC[C@@H]1CN(CCN2CCN(C(=O)c3cc(Cl)cc(C(F)(F)F)c3)[C@H](Cc3ccc(Cl)cc3)C2)CCO1.Cl.Cl
The melting point of the first is lower: 132 to 135 °C for the first, 148 to 153 °C for the second.

Compared with CC1(C)COCCN1CC#CCN1CCN(C(=O)c2cc(C(F)(F)F)cc(C(F)(F)F)c2)[C@H](Cc2ccc(Cl)cc2)C1.Cl.Cl, COc1cc(C(=O)N2CCN(CCN3CCc4ncccc4C3)C[C@H]2Cc2c[nH]c3ccccc23)cc(C(F)(F)F)c1.Cl.Cl.Cl is higher in melting point: 120 to 150 °C for the first, 180 to 190 °C for the second.

COC[C@@H]1CN(CCN2CCN(C(=O)c3cc(C(F)(F)F)cc(S(=O)(=O)C4CCCC4)c3)[C@H](Cc3ccc(Cl)cc3)C2)CCO1.Cl.Cl showed a melting point greater than 230 °C.
In the case of Cl.Cl.O=C(c1cc(C(F)(F)F)cc(C(F)(F)F)c1)N1CCN(CCN2CCC(F)(F)CC2)C[C@H]1Cc1ccc2ccccc2c1, the melting point is reported as greater than 250 °C.
